Laboratory results published in patent US12319664B2, “Herbicidally active 3-phenylisoxazoline-5-carboxamides of cyclopentenylcarboxylic acid derivatives” (Bayer Aktiengesellschaft, priority 2018, dated 2025).

Legend:
ALOMY = experiment: Post-emergence herbicidal action against ALOMY; format: in vivo, Alopecurus myosuroides; conditions: application rate 80 g/ha, rated visually after about 3 weeks
Method in brief: (§1)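 Visual scoring, about three weeks after a post-emergence spray, compares treated plants with untreated controls on a 0–100% scale. Spraying used WP or EC preparations with 0.5% additive at 600 l/ha on one-leaf-stage plants grown in sandy loam.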

AVEFA = experiment: Post-emergence herbicidal action against AVEFA; format: in vivo, Avena fatua; conditions: application rate 80 g/ha, rated visually after about 3 weeks
Method in brief: as §1

LOLRI = experiment: Post-emergence herbicidal action against LOLRI; format: in vivo, Lolium rigidum; conditions: application rate 80 g/ha, rated visually after about 3 weeks
Method in brief: as §1

ABUTH = experiment: Post-emergence herbicidal action against ABUTH; format: in vivo, Abutilon theophrasti; conditions: application rate 80 g/ha, rated visually about 3 weeks after treatment
Method in brief: as §1

AMARE = experiment: Post-emergence herbicidal action against AMARE; format: in vivo, Amaranthus retroflexus; conditions: application rate 80 g/ha, rated visually about 3 weeks after treatment
Method in brief: as §1

MATIN = experiment: Post-emergence herbicidal action against MATIN; format: in vivo, Matricaria inodora; conditions: application rate 80 g/ha, rated visually about 3 weeks after treatment
Experimental: [table] 2. Post-emergence herbicidal action against harmful plants and crop plant compatibility Seeds of monocotyledonous and dicotyledonous weeds and crop plants are placed in sandy loam in plastic or wood-fibre pots, covered with soil and cultivated in a greenhouse under controlled growth conditions. 2 to 3 weeks after sowing, the test plants are treated at the one-leaf stage. The compounds of the invention, formulated in the form of wettable powders (WP) or as emulsion concentrates (EC), are then sprayed onto the green parts of the plants as aqueous suspension or emulsion with addition of 0.5% additive at a water application rate of 600 l/ha (converted). After the test plants have been kept in the greenhouse under optimum growth conditions for about 3 weeks, the activity of the preparations is rated visually in comparison to untreated controls. For example, 100% activity=the plants have died, 0% activity=like control plants.

POLCO = experiment: Post-emergence herbicidal action against POLCO; format: in vivo, Polygonum convolvulus; conditions: application rate 80 g/ha, rated visually about 3 weeks after treatment
Method in brief: as §1

VIOTR = experiment: Post-emergence herbicidal action against VIOTR; format: in vivo, Viola tricolor; conditions: application rate 80 g/ha, rated visually about 3 weeks after treatment
Method in brief: as §1

VERPE = experiment: Post-emergence herbicidal action against VERPE; format: in vivo, Veronica persica; conditions: application rate 80 g/ha
Method in brief: as §1

HORMU = experiment: Post-emergence herbicidal action against HORMU; format: in vivo, Hordeum murinum; conditions: application rate 80 g/ha
Method in brief: as §1

ECHCG = experiment: Post-emergence herbicidal action against ECHCG; format: in vivo, Echinochloa crus-galli; conditions: application rate 80 g/ha, rated visually after about 3 weeks
Method in brief: as §1

SETVI = experiment: Post-emergence herbicidal action against SETVI; format: in vivo, Setaria viridis; conditions: application rate 80 g/ha, rated visually after about 3 weeks
Method in brief: as §1

PHBPU = experiment: Post-emergence herbicidal action against PHBPU; format: in vivo, Pharbitis purpurea; conditions: application rate 80 g/ha, rated visually about 3 weeks after treatment
Method in brief: as §1

STEME = experiment: Post-emergence herbicidal action against STEME; format: in vivo, Stellaria media; conditions: application rate 80 g/ha, rated visually about 3 weeks after treatment
Method in brief: as §1

Row | Compound | Herbicidal action against [%] ALOMY (ALOMY) [%] | Herbicidal action against [%] AVEFA (AVEFA) [%] | Herbicidal action against [%] LOLRI (LOLRI) [%] | Herbicidal action against [%] ABUTH (ABUTH) [%] | Herbicidal action against [%] AMARE (AMARE) [%] | Herbicidal action against [%] MATIN (MATIN) [%] | Herbicidal action against [%] POLCO (POLCO) [%] | Herbicidal action against [%] VIOTR (VIOTR) [%] | Herbicidal action against [%] VERPE (VERPE) [%] | Herbicidal action against [%] HORMU (HORMU) [%] | Herbicidal action against [%] ECHCG (ECHCG) [%] | Herbicidal action against [%] SETVI (SETVI) [%] | Herbicidal action against [%] PHBPU (PHBPU) [%] | Herbicidal action against [%] STEME (STEME) [%]
1 | CCOC(=O)C1C=CC(NC(=O)C2(C(F)(F)F)CC(c3cc(C)cc(C(F)(F)F)c3)=NO2)C1 (mixture of isomers) [Example I-036] | 90 | 80 | 90 | 80 | 80 | 80 | 90 | 90 | 80 | 80 |  |  |  | 
2 | CCOC(=O)[C@@H]1C=C[C@H](NC(=O)C2(C(F)(F)F)CC(c3cc(C)cc(F)c3)=NO2)C1 (stereo partly shown) [Example I-022] | 100 | 100 | 100 | 90 | 100 | 80 | 100 | 80 | 80 | 80 | 80 | 100 |  | 
3 | CCOC(=O)C1C=CC(NC(=O)C2(C)CC(c3cc(F)cc(F)c3)=NO2)C1 (mixture of isomers) [Example I-059] | 90 | 100 | 100 |  | 80 | 90 | 80 |  | 80 | 90 | 100 | 90 | 80 | 90
4 | C=CC1(C(=O)NC2C=CC(C(=O)NS(=O)(=O)CCC)C2)CC(c2cc(F)cc(F)c2)=NO1 (mixture of isomers) [II-14] | 100 | 100 | 100 |  | 90 | 90 | 90 | 90 | 90 | 90 | 100 | 90 |  | 
5 | C=CC1(C(=O)NC2C=CC(C(=O)OCc3ccccc3)C2)CC(c2cc(F)cc(F)c2)=NO1 (mixture of isomers) [Example I-033] | 90 | 90 | 90 | 80 | 90 | 90 | 100 |  | 80 | 80 | 90 | 90 | 80 | 80
6 | COC(=O)[C@@H]1C=C[C@H](NC(=O)C2(C(F)(F)F)CC(c3cc(C)cc(Cl)c3)=NO2)C1 (stereo partly shown) [Example I-027] | 90 | 90 | 90 | 80 | 80 | 90 |  | 80 | 80 | 80 | 80 | 90 |  | 80
7 | COC(=O)C1C=CC(NC(=O)C2(C(F)(F)F)CC(c3cc(C)cc(C(F)(F)F)c3)=NO2)C1 (mixture of isomers) [Example I-048] | 100 | 90 | 80 | 80 |  | 80 |  |  | 80 | 90 | 80 |  | 80 | 90
8 | Cc1cc(F)cc(C2=NOC(C(=O)NC3C=CC(C(=O)OCC(F)(F)F)C3)(C(F)(F)F)C2)c1 (mixture of isomers) [Example I-032] | 90 | 100 | 90 |  | 90 | 80 | 100 | 80 | 80 | 80 |  | 90 |  | 
9 | CC1(C(=O)N[C@H]2C=C[C@@H](C(=O)OCCCl)C2)CC(c2cc(F)cc(F)c2)=NO1 (stereo partly shown) [Example I-009] | 90 | 90 | 90 | 90 |  | 90 | 90 |  | 90 | 90 | 90 | 90 | 90 | 90
10 | CC1(C(=O)N[C@H]2C=C[C@@H](C(=O)OCc3ccccc3)C2)CC(c2cc(F)cc(F)c2)=NO1 (stereo partly shown) [Example I-008] | 100 | 90 | 90 | 90 | 90 | 90 | 90 |  | 90 | 90 | 90 | 90 | 90 | 90
11 | COC(=O)C1C=CC(NC(=O)C2(C(F)(F)F)CC(c3cc(Cl)cc(Cl)c3)=NO2)C1 (mixture of isomers) [Example I-039] | 100 | 90 | 100 | 80 | 80 | 80 |  |  | 80 | 80 | 90 | 80 | 80 | 90
